{
  "source": "patent US5684222A",
  "about": "(priority 1994, dated 1997)",
  "system": "TNFRp55+/+ mice",
  "details": "mouse, in vivo",
  "data": [
    {"smiles": "N[C@H]1C(O)O[C@H](CO)[C@H](O)[C@@H]1O", "note": "(stereo partly drawn) [D-Gal, D-galactosamine]", "values": [
      {"measurement": "TNFRp55 +/+ dead/group", "result": "0/4"}
    ]}
  ]
}
